In EP0311100A2, “Derivatives of dideoxycytidine, their preparation and pharmaceutical use” (F. HOFFMANN-LA ROCHE AG, priority 1987, dated 1989):

Columns and labels:
[1] = apparent partition coefficient n-octanol / phosphate buffer pH 7,4 (method of Hansch et al.); format: physicochemical; details: n-octanol / aqueous phosphate buffer pH 7,4
From the text: Wie oben erwähnt, zeigen die erfindungsgemässen Verbindungen grössere Stabilität und Lipophilität als bekannte Nucleotidderivate. In der nachstehenden Tabelle I sind für ausgewählte erfindungsgemässe Verbindungen die gemessenen Verteilungskoeffizienten angegeben, die wiederum ein Anzeichen für die Lipophilität der Verbindung darstellt. Tabelle I

[2] = stability in human plasma at 37°C (HPLC); format: in vitro ADME; details: human plasma 37°C; for % N, O-Diacyl (1a): incubated 1a; for % N, O-Diacyl (1b): incubated 1b; for % N-Acyl (2c): incubated 2c; for % N, O-Diacyl (1c): incubated 1c; for % N-Acyl (2a): incubated 2a; for % N-Acyl (2b): incubated 2b
From the text: (§1) Die Stabilität ausgewählter erfindungsgemässer Verbindungen in Methanol/Wasser oder menschlichem Blutplasma wurde wie nachstehend angegeben geprüft:
Die folgenden Verbindungen wurden auf Stabilität im menschlichen Plasma geprüft:
(§2) Zunächst wurden die HPLC-Bedingungen für die Probenmessung bestimmt, d.h. eine Revers-Phasen C-18-Säule mit einem Lösungsmittelsystem mit variierenden Verhältnissen von Methanol: […] Natriumphosphat, pH 6,8.
(§3) Danach wurde die maximale UV-Absorption für jede Probe und die grösste Stabilität unter Laborbedingungen für jede Probe in Methanol:Wasser bestimmt. Danach wurde die Stabilität im menschlichen Plasma untersucht.
Das im Experiment verwendete menschliche Plasma wurde bis zur Verwendung eingefroren.
(§4) Die HPLC-Apparatur war ein Gradientsystem bestehend aus einem Modell 1601 Gradient Master, einer Constametric I Pumpe und einer Constametric III Pumpe. Weiterhin wurden ein LDC-Spectromometer III als Detektor und ein Waters 712B Wisp Autoinjektor verwendet. Allen Proben wurde eine ODS-3 RAC II, 5 µ, 15 cm x 4,0 mm ID-Säule (Whatmann, Clifton, N.J.) verwendet. Das Lösungsmittelsystem bestand aus Methanol: 0,001M NaH₂PO₄ (pH 6,8) in den folgenden Proportionen: 1b, 2b - 50:50; 1a, 2a - 43:57; 1c, 2c - 50:50.
Jede Verbindung wurde in ein konisches 15 ml Teströhrchen eingewogen und in DMSO gelöst, so dass eine Vorratslösung von 10 mg/ml erhalten wurde. Die Proben für die Standardkurve wurden durch Verdünnen der DMSO-Vorratslösung mit der mobilen Phasen wie folgt hergestellt: […]
(§5) Die chromatographischen Daten wurden mit einem Nelson 3000 Datasystem gesammelt. Peakhöhen der Kalibrierungs-Standards jeder Verbindung wurden gemessen und gegen bekannte Konzentrationen aufgetragen. Eine lineare Kurve der kleinsten Quadrate (ungewichtet) wurde berechnet und alle Probenkonzentrationen wurden aus dieser Kurve rückgerechnet. Die Resultate sind in den Tabellen II-VIII zusammengestellt. Tabelle II

[3] = stability in methanol/water (HPLC); format: physicochemical
From the text: as §1, §2, §3, §4
Jede Verbindung wurde in ein konisches 15 ml Teströhrchen eingewogen und in DMSO gelöst, so dass eine Vorratslösung von 10 mg/ml erhalten wurde. Die Proben für die Standardkurve wurden durch Verdünnen der DMSO-Vorratslösung mit der mobilen Phasen wie folgt hergestellt:
as §5

## CCC(=O)Nc1ccn([C@H]2CC[C@@H](COC(=O)CC)O2)c(=O)n1 [Verbindung 1a, N-Propanoyl 2′,3′-dideoxycytidin 5′-propanoat]
[1]
  Scheinbarer Verteilungskoeffizient zwischen n-Octanol und Phosphatpuffer pH 7,4: 6.8
[2]; time 0 (Tage)
  % N, O-Diacyl (1a): 86%
[2]; time 0,5 (Tage)
  % N, O-Diacyl (1a): 70%
[2]; time 1 (Tage)
  % N, O-Diacyl (1a): 40%
[2]; time 2 (Tage)
  % N, O-Diacyl (1a): 17%
[2]; time 4 (Tage)
  % N, O-Diacyl (1a): 10%
[2]; time 24 (Tage)
  % N, O-Diacyl (1a): 1%
[3]; time 0 days
  % N, O-Diacyl (1a,1b,1c): 100%
[3]; time 14 days
  % N, O-Diacyl (1a,1b,1c): 43%
  % N-Acyl (2a,2b, 2c): 18%
  % O-Acyl- (3a,3b,3c): 27%

## CC(C)C(=O)Nc1ccn([C@H]2CC[C@@H](COC(=O)C(C)C)O2)c(=O)n1 [Verbindung 1b, N-(2-Methylpropanoyl) 2′,3′-dideoxycytidin 5′-(2-methylpropanoat)]
[1]
  Scheinbarer Verteilungskoeffizient zwischen n-Octanol und Phosphatpuffer pH 7,4: 58.0
[2]; time 0 (Tage)
  % N, O-Diacyl (1b): 95%
[2]; time 0,5 (Tage)
  % N, O-Diacyl (1b): 83%
[2]; time 1 (Tage)
  % N, O-Diacyl (1b): 38%
[2]; time 2 (Tage)
  % N, O-Diacyl (1b): 9%
[2]; time 4 (Tage)
  % N, O-Diacyl (1b): 4%
[2]; time 24 (Tage)
  % N, O-Diacyl (1b): 3%
[3]; time 0 days
  % N, O-Diacyl (1a,1b,1c): 100%
[3]; time 14 days
  % N, O-Diacyl (1a,1b,1c): 73%
  % N-Acyl (2a,2b, 2c): 8%
  % O-Acyl- (3a,3b,3c): 17%
  % ddC 4: 2%

## Nc1ccn([C@H]2C=C[C@@H](CO)O2)c(=O)n1 [2′,3′-Didehydro-2′,3′-dideoxycytidin, reference compound]
[1]
  Scheinbarer Verteilungskoeffizient zwischen n-Octanol und Phosphatpuffer pH 7,4: 0.03

## CCCC(=O)Nc1ccn([C@H]2CC[C@@H](CO)O2)c(=O)n1 [Verbindung 2c, N-Butanoyl 2′,3′-dideoxycytidin]
[1]
  Scheinbarer Verteilungskoeffizient zwischen n-Octanol und Phosphatpuffer pH 7,4: 2.67
[2]; time 0 (Tage)
  % N-Acyl (2c): 101%
[2]; time 0,5 (Tage)
  % N-Acyl (2c): 95%
[2]; time 1 (Tage)
  % N-Acyl (2c): 92%
[2]; time 2 (Tage)
  % N-Acyl (2c): 90%
[2]; time 4 (Tage)
  % N-Acyl (2c): 85%
[2]; time 24 (Tage)
  % N-Acyl (2c): 77%
[3]; time 0 days
  % N-Acyl (2a,2b, 2c): 100%
[3]; time 14 days
  % N-Acyl (2a,2b, 2c): 76%
  % ddC 4: 20%

## CC(=O)OC[C@@H]1CC[C@H](n2ccc(N)nc2=O)O1 [2′,3′-Dideoxycytidin 5′-acetat]
[1]
  Scheinbarer Verteilungskoeffizient zwischen n-Octanol und Phosphatpuffer pH 7,4: 0.14

## Nc1ccn([C@H]2CC[C@@H](CO)O2)c(=O)n1 [2′,3′-Dideoxycytidin, reference compound]
[1]
  Scheinbarer Verteilungskoeffizient zwischen n-Octanol und Phosphatpuffer pH 7,4: 0.05

## CCCCCCCCCCCCCCCC(=O)Nc1ccn([C@H]2CC[C@@H](COC(=O)CCCCCCCCCCCCCCC)O2)c(=O)n1 [N-Palmitoyl 2′,3′-dideoxycytidin 5′-palmitoat]
[1]
  Scheinbarer Verteilungskoeffizient zwischen n-Octanol und Phosphatpuffer pH 7,4: > 1000

## CC(=O)Nc1ccn([C@H]2CC[C@@H](CO)O2)c(=O)n1 [N-Acetyl 2′,3′-dideoxycytidin]
[1]
  Scheinbarer Verteilungskoeffizient zwischen n-Octanol und Phosphatpuffer pH 7,4: 0.22

## CCCC(=O)Nc1ccn([C@H]2CC[C@@H](COC(=O)CCC)O2)c(=O)n1 [Verbindung 1c, N-Butanoyl 2′,3′-dideoxycytidin 5′-butanoat]
[1]
  Scheinbarer Verteilungskoeffizient zwischen n-Octanol und Phosphatpuffer pH 7,4: 70.0
[2]; time 0 (Tage)
  % N, O-Diacyl (1c): 64%
[2]; time 0,5 (Tage)
  % N, O-Diacyl (1c): 23%
[2]; time 1 (Tage)
  % N, O-Diacyl (1c): 10%
[2]; time 2 (Tage)
  % N, O-Diacyl (1c): 7%
[2]; time 4 (Tage)
  % N, O-Diacyl (1c): 6%
[2]; time 24 (Tage)
  % N, O-Diacyl (1c): 6%
[3]; time 0 days
  % N, O-Diacyl (1a,1b,1c): 100%
[3]; time 14 days
  % N, O-Diacyl (1a,1b,1c): 43%
  % N-Acyl (2a,2b, 2c): 20%
  % O-Acyl- (3a,3b,3c): 32%
  % ddC 4: 25%

## CCC(=O)Nc1ccn([C@H]2CC[C@@H](CO)O2)c(=O)n1 [Verbindung 2a, N-Propanoyl 2′,3′-dideoxycytidin]
[1]
  Scheinbarer Verteilungskoeffizient zwischen n-Octanol und Phosphatpuffer pH 7,4: 0.83
[2]; time 0 (Tage)
  % N-Acyl (2a): 97%
[2]; time 0,5 (Tage)
  % N-Acyl (2a): 87%
[2]; time 1 (Tage)
  % N-Acyl (2a): 85%
[2]; time 2 (Tage)
  % N-Acyl (2a): 96%
[2]; time 4 (Tage)
  % N-Acyl (2a): 99%
[2]; time 24 (Tage)
  % N-Acyl (2a): 80%
[3]; time 0 days
  % N-Acyl (2a,2b, 2c): 100%
[3]; time 14 days
  % N-Acyl (2a,2b, 2c): 56%
  % ddC 4: 28%

## CC(C)C(=O)Nc1ccn([C@H]2CC[C@@H](CO)O2)c(=O)n1 [Verbindung 2b, N-(2-Methylpropanoyl) 2′,3′-dideoxycytidin]
[1]
  Scheinbarer Verteilungskoeffizient zwischen n-Octanol und Phosphatpuffer pH 7,4: 2.38
[2]; time 0 (Tage)
  % N-Acyl (2b): 83%
[2]; time 0,5 (Tage)
  % N-Acyl (2b): 88%
[2]; time 1 (Tage)
  % N-Acyl (2b): 61%
[2]; time 2 (Tage)
  % N-Acyl (2b): 78%
[2]; time 4 (Tage)
  % N-Acyl (2b): 89%
[2]; time 24 (Tage)
  % N-Acyl (2b): 92%
[3]; time 0 days
  % N-Acyl (2a,2b, 2c): 100%
[3]; time 14 days
  % N-Acyl (2a,2b, 2c): 83%
  % O-Acyl- (3a,3b,3c): 17%
  % ddC 4: 2%

## O=C(Nc1ccn([C@H]2CC[C@@H](CO)O2)c(=O)n1)c1ccccc1 [N-Benzoyl 2′,3′-dideoxycytidin]
[1]
  Scheinbarer Verteilungskoeffizient zwischen n-Octanol und Phosphatpuffer pH 7,4: 15.0

## CC(=O)Nc1ccn([C@H]2C=C[C@@H](COC(C)=O)O2)c(=O)n1 [N-Acetyl 2′,3′-didehydro-2′,3′-dideoxycytidin 5′-acetat]
[1]
  Scheinbarer Verteilungskoeffizient zwischen n-Octanol und Phosphatpuffer pH 7,4: 0.39

## CC(=O)Nc1ccn([C@H]2CC[C@@H](COC(C)=O)O2)c(=O)n1 [N-Acetyl 2′,3′-dideoxycytidin 5′-acetat]
[1]
  Scheinbarer Verteilungskoeffizient zwischen n-Octanol und Phosphatpuffer pH 7,4: 0.62
